Results as given in patent US6784184B2, “5-(arylsulfonyl)-,5-(arylsulfinyl), and 5-(arylsulfanyl)-thiazolidine-2,4-diones useful for inhibition of farnesyl-protein transferase” (Wyeth Holdings Corporation, priority 2001, dated 2004).

What was measured:
[1] = target: FPTase (H-Ras substrate) (UniProt P29702+P49355); assay: in vitro FTase Inhibition Assay, H-Ras as substrate for farnesylation; format: biochemical; conditions: H-Ras used as substrate for farnesylation
Description: (§1) The ability of the compounds of this invention to inhibit FPTase was evaluated in the standard pharmacological in vitro test procedures described below.
(§2) Methods—1. […] 2. Solution #1 is added to FPTase reaction in a volume of […]. 3. Standard reaction mix, […], contains 50 mM Tris (7.5), […], 3 mM MgCl2, 20 mM KCl, 5 mM DTT, 0.2% octyl-B-glucoside, 1% DMSO, […], 10 ng FPTase, and various concentrations of FPTase inhibitors. 4. Incubate for 30-90 min at […] 5. Stop reactions with TCA/SDS (6%/2%), hold at 4° C. for 45-60 min. 6. Filter by manifold or 96 well plate, wash filter 3-5× with TCA (6%). 7. Add scintillant to filters, measure ^3H-FPP incorporation into Ras protein.
(§3) (cpm from precipitated Ras with test compounds)−(background cpm)×100=% inhibition.
(§4) (cpm from precipitated Ras without test compounds)−(background cpm)

[2] = target: FPTase (K-Ras substrate) (UniProt P29702+P49355); assay: in vitro FTase Inhibition Assay, K-Ras as substrate for farnesylation; format: biochemical; conditions: K-Ras used as substrate for farnesylation
Description: as §1, §2, §3, §4

SMILES	IC50 [1]	IC50 [2]
COc1ccc(S(=O)(=O)C2(CCCC#Cc3cc(Cl)ccc3C)SC(=O)NC2=O)cc1 (stereo not shown) [Example 138, 5-[5-(5-Chloro-2-methylphenyl)pent-4-ynyl]-5-(4-methoxybenzene-sulfonyl)thiazolidine-2,4-dione]	23 to 32 nM	300 to 420 nM
Cc1ccc(Cl)cc1C#CCCCC1(S(=O)(=O)c2ccc(OC(F)(F)F)cc2)SC(=O)NC1=O (stereo not shown) [Example 139, 5-[5-(5-Chloro-2-methylphenyl)pent-4-ynyl]-5-(4-trifluoromethoxybenzene-sulfonyl)thiazolidine-2,4-dione]	140 to 170 nM	600 to 5000 nM
COc1ccc(S(=O)(=O)C2(CCCC#Cc3ccc(Cl)cc3C)SC(=O)NC2=O)cc1 (stereo not shown) [Example 142, 5-[5-(4-Chloro-2-methylphenyl)pent-4-ynyl]-5-(4-methoxybenzene-sulfonyl)-thiazolidine-2,4-dione]	17 to 30 nM	40 to 1000 nM
COc1ccc(S(=O)(=O)C2(CCCC#Cc3ccc(NC(=O)OC(C)(C)C)cc3)SC(=O)NC2=O)cc1 (stereo not shown) [Example 145, (4-{5-[5-(4-Methoxybenzensulfonyl)-2,4-dioxothiazolidin-5-yl]pent-1-ynyl}phenyl)carbamic Acid tert-Butyl Ester]	1200 to 1700 nM	5600 to 10000 nM
Cc1ccc(C(=O)NC(C)(C)C)cc1C#CCCCC1(S(=O)(=O)c2ccc(I)cc2)SC(=O)NC1=O (stereo not shown) [Example 147, N-tert-Butyl-3-{5-[5-(4-iodo-benzenesulfonyl)-2,4-dioxothiazol-idin-5-yl]-pent-1-ynyl}-4-methylbenzamide]	6.8 to 210 nM	80 to 100 nM
COc1ccc(S(=O)(=O)C2(CCCC#Cc3ccc(NC(=O)OC(C)(C)C)cc3C)SC(=O)NC2=O)cc1 (stereo not shown) [Example 149, (4-{5-[5-(4-Methoxybenzenesulfonyl)-2,4-dioxo-thiazolidin-5-yl]pent-1-ynyl}-3-methylphenyl)carbamic Acid tert-Butyl Ester]	450 to 500 nM	1000 to 4900 nM
COc1ccc(S(=O)(=O)C2(CCCC#Cc3cc(NC(=O)OC(C)(C)C)ccc3C)SC(=O)NC2=O)cc1 (stereo not shown) [Example 150, (3-{5-[5-(4-Methoxybenzenesulfonyl)-2,4-dioxothiazolidin-5-yl]pent-1-ynyl}-4-methylphenyl)carbamic Acid tert-Butyl Ester]	7.4 to 32 nM	16 to 68 nM
COc1ccc(S(=O)(=O)C2(CCCC#Cc3cc(C(=O)NC(C)(C)C)ccc3C)SC(=O)NC2=O)cc1 (stereo not shown) [Example 152, N-tert-Butyl-3-{5-[5-(4-methoxy-benzenesulfonyl)-2,4-dioxothiazol-idin-5-yl]pent-1-ynyl}-4-methyl-benzamide]	11 to 16 nM	100 to 230 nM
COC(=O)c1ccc(C)c(C#CCCCC2(S(=O)(=O)c3ccc(OC)cc3)SC(=O)NC2=O)c1 (stereo not shown) [Example 155, 3-{5-[5-(4-Methoxybenzenesulfonyl)-2,4-dioxo-thiazolidin-5-yl]-pent-1-ynyl}-4-methylbenzoic Acid Methyl Ester]	10 to 320 nM	420 to 440 nM
COc1ccc(S(=O)(=O)C2(CCCC#Cc3ccc(C#N)cc3)SC(=O)NC2=O)cc1 (stereo not shown) [Example 158, 4-{5-[5-(4-Methoxybenzenesulfonyl)-2,4-dioxo-thiazolidin-5-yl]pent-1-ynyl}benzonitrile]	150 nM	3800 nM
O=C1NC(=O)C(CCCC#Cc2ccc(-n3cccc3)cc2)(S(=O)(=O)c2ccc(I)cc2)S1 (stereo not shown) [Example 162, 5-(4-Iodo-benzenesulfonyl)-5-[5-(4-pyrrol-1-yl-phenyl)pent-4-ynyl]-thiazolidine-2,4-dione]	1210 nM	4000 nM
COc1cccc(S(=O)(=O)C2(CCCC#Cc3cccs3)SC(=O)NC2=O)c1 (stereo not shown) [Example 164, 5-(3-Methoxybenzenesulfonyl)-5-(5-thiophen-2-yl-pent-4-ynyl)-thiazolidine-2,4-dione]	150 nM	> 10000 nM
COc1ccc(S(=O)(=O)C2(CCCC#Cc3cccs3)SC(=O)NC2=O)cc1 (stereo not shown) [Example 166, 5-(4-Methoxybenzenesulfonyl)-5-(5-thiophen-2-yl-pent-4-ynyl)-thiazolidine-2,4-dione]	150 nM	5300 nM
COc1ccc(S(=O)(=O)C2(CC#Cc3ccc(-c4ccccc4)cc3)SC(=O)NC2=O)cc1 (stereo not shown) [Example 171, 5-(3-Biphenyl-4-yl-prop-2-ynyl)-5-(4-methoxybenzenesulfonyl)-thiazolidine-2,4-dione]	200 nM	3300 nM
COc1ccc(S(=O)(=O)C2(CCCC#Cc3cc(NC(=O)Oc4ccc(Cl)cc4)ccc3C)SC(=O)NC2=O)cc1 (stereo not shown) [Example 177, (3-{5-[5-(4-Methoxybenzenesulfonyl)-2,4-dioxothiazolidin-5-yl]pent-1-ynyl}-4-methylphenyl)carbamic Acid 4-Chloro-phenyl Ester]	11 to 32 nM	86 to 100 nM
COC(=O)Nc1ccc(C)c(C#CCCCC2(S(=O)(=O)c3ccc(OC)cc3)SC(=O)NC2=O)c1 (stereo not shown) [Example 178, (3-{5-[5-(4-Methoxybenzenesulfonyl)-2,4-dioxothiazolidin-5-yl]pent-1-ynyl}-4-methylphenyl)carbamic Acid Methyl Ester]	17 to 32 nM	10 nM

Next, values leading:

IC50 [1]	IC50 [2]	SMILES
21 to 400 nM	37 to 800 nM	Cc1ccc(C#CCCCC2(S(=O)(=O)c3ccc(I)cc3)SC(=O)NC2=O)c(C)c1 (stereo not shown) [Example 137, 5-[5-(2,4-Dimethylphenyl)pent-4-ynyl]-5-(4-iodobenzenesulfonyl)-thiazolidine-2,4-dione]
40 to 41 nM	320 to 550 nM	Cc1cc(Br)ccc1C#CCCCC1(S(=O)(=O)c2ccc(I)cc2)SC(=O)NC1=O (stereo not shown) [Example 144, 5-[5-(4-Bromo-2-methylphenyl)pent-4-ynyl]-5-(4-iodobenzenesulfonyl)-thiazolidine-2,4-dione]
4.5 to 120 nM	23 to 31 nM	Cc1ccc(NC(=O)OC(C)(C)C)cc1C#CCCCC1(S(=O)(=O)c2ccc(I)cc2)SC(=O)NC1=O (stereo not shown) [Example 148, (3-{5-[5-(4-Iodobenzenesulfonyl)-2,4-dioxothiazolidin-5-yl]-pent-1-ynyl}-4-methylphenyl)carbamic Acid tert-Butyl Ester]
530 to 700 nM	210 to 1000 nM	COc1ccc(S(=O)(=O)C2(CCCC#Cc3ccc(NC(=O)OC(C)(C)C)cc3C(F)(F)F)SC(=O)NC2=O)cc1 (stereo not shown) [Example 151, (4-{5-[5-(4-Methoxybenzenesulfonyl)-2,4-dioxothiazolidin-5-yl]pent-1-ynyl}-3-trifluoromethylphenyl)-carbamic Acid tert-Butyl Ester]
170 to 200 nM	1000 to 6100 nM	COc1ccc(S(=O)(=O)C2(CCCC#Cc3ccc(C(F)(F)F)cc3)SC(=O)NC2=O)cc1 (stereo not shown) [Example 153, 5-(4-Methoxybenzenesulfonyl)-5-[5-(4-trifluoromethylphenyl)pent-4-ynyl]-thiazolidine-2,4-dione]
70 to 150 nM	1000 to 2500 nM	COc1ccc(S(=O)(=O)C2(CCCC#Cc3ccc(OC(F)(F)F)cc3)SC(=O)NC2=O)cc1 (stereo not shown) [Example 154, 5-(4-Methoxybenzenesulfonyl)-5-[5-(4-trifluoromethoxyphenyl)pent-4-ynyl]-thiazolidine-2,4-dione]
270 nM	5000 nM	Cc1ccc(S(=O)(=O)C2(CCCC#Cc3ccc(C(C)(C)C)cc3)SC(=O)NC2=O)cc1 (stereo not shown) [Example 157, 5-[5-(4-tert-Butylphenyl)pent-4-ynyl]-5-(toluene-4-sulfonyl)-thiazolidine-2,4-dione]
650 nM	> 10000 nM	Cc1ccc(S(=O)(=O)C2(CCCC#Cc3ccc(S(C)(=O)=O)cc3)SC(=O)NC2=O)cc1 (stereo not shown) [Example 159, 5-[5-(4-Methanesulfonylphenyl)-pent-4-ynyl]-5-(toluene-4-sulfonyl)-thiazolidine-2,4-dione]
100 nM	1800 nM	Cc1ccc(S(=O)(=O)C2(CC#Cc3ccc(-c4ccccc4)cc3)SC(=O)NC2=O)cc1 (stereo not shown) [Example 169, 5-(3-Biphenyl-4-yl-prop-2-ynyl)-5-(toluene-4-sulfonyl)-thiazolidine-2,4-dione]
380 nM	4700 nM	Cc1ccc(S(=O)(=O)C2(CC#Cc3ccc(Oc4ccccc4)cc3)SC(=O)NC2=O)cc1 (stereo not shown) [Example 170, 5-[3-(4-Phenoxyphenyl)prop-2-ynyl]-5-(toluene-4-sulfonyl)-thiazolidine-2,4-dione]
10 to 32 nM	53 to 520 nM	COc1ccc(S(=O)(=O)C2(CCCC#Cc3cc(NC(=O)OCc4ccccc4)ccc3C)SC(=O)NC2=O)cc1 (stereo not shown) [Example 175, (3-{5-[5-(4-Methoxybenzenesulfonyl)-2,4-dioxothiazolidin-5-yl]pent-1-ynyl}-4-methylphenyl)carbamic Acid Benzyl Ester]
3.2 to 32 nM	30 to 320 nM	COc1ccc(S(=O)(=O)C2(CCCC#Cc3cc(NC(=O)OCc4ccc([N+](=O)[O-])cc4)ccc3C)SC(=O)NC2=O)cc1 (stereo not shown) [Example 176, (3-{5-[5-(4-Methoxybenzenesulfonyl)-2,4-dioxothiazolidin-5-yl]pent-1-ynyl}-4-methylphenyl)carbamic Acid 4-Nitro-Benzyl Ester]
2 to 32 nM	5 to 70 nM	COc1ccc(S(=O)(=O)C2(CCCC#Cc3cc(NC(=O)OC(C)C)ccc3C)SC(=O)NC2=O)cc1 (stereo not shown) [Example 179, (3-{5-[5-(4-Methoxybenzenesulfonyl)-2,4-dioxothiazolidin-5-yl]pent-1-ynyl}-4-methylphenyl)carbamic Acid Isopropyl Ester]
